# Test results reported in patent US20100267561A1, “HERBICIDAL PYRIDAZINONE DERIVATIVES” (priority 2007, published 2010).
# Key:
# Test in all cases: Test E pre-/postemergence plant response
# Assay type in all cases: in vivo
# [1] = system: Italian ryegrass (Lolium multiflorum); conditions: scale 0 to 100
# Excerpt: (§1) Seeds of plant species selected from bermudagrass (Cynodon dactylon), Surinam grass (Brachiaria decumbens), large crabgrass (Digitaria sanguinalis), green foxtail (Setaria viridis), goosegrass (Eleusine indica), johnsongrass (Sorghum halepense), kochia (Kochia scoparia), pitted morningglory (Ipomoea lacunosa), purple nutsedge (Cyperus rotundus), common ragweed (Ambrosia elation), black mustard (Brassica nigra), guineagrass (Panicum maximum), dallisgrass (Paspalum dilatatum), barnyardgrass (Echinochloa crus-galli), southern (S.) sandbur (Cenchrus echinatus), common sowthistle (Sonchus oleraceous), prickly sida (Sida spinosa), Italian ryegrass (Lolium multiflorum), common purslane (Portulaca oleracea), broadleaf signalgrass (Brachiaria platyphylla), common groundsel (Senecio vulgaris), common chickweed (Stellaria media), Virginia (V.) dayflower (Commelina virginica), tropical (T.) spiderwort (Commelina benghalensis), annual bluegrass (Poa annua), naked crabgrass (Digitaria nuda), itchgrass (Rottboellia cochinchinensis), quackgrass (Elytrigia repens), Canada horseweed (Conyza canadensis), field bindweed (Convolvulus arvensis), spanishneedles (Bidens bipinnata), common mallow (Malva sylvestris) and Russian thistle (Salsola kali) were planted and treated preemergence with test chemicals formulated in a non-phytotoxic solvent mixture which included a surfactant. At the same time, plants selected from these weed species were treated with postemergence applications of some of the test chemicals formulated in the same manner. Plants ranged in height from 2 to 18 cm (1- to 4-leaf stage) for postemergence treatments.
# (§2) Treated plants and controls were maintained in a greenhouse for 14 to 21 days, after which time all species were compared to controls and visually evaluated. Plant response ratings, summarized in Table E, are based on a scale of 0 to 100 where 0 is no effect and 100 is complete control. A dash (-) response means no test result.
# [2] = system: annual bluegrass (Poa annua); conditions: scale 0 to 100
# Excerpt: as §1, §2
# [3] = system: bermudagrass (Cynodon dactylon); conditions: scale 0 to 100
# Excerpt: as §1, §2
# [4] = system: broadleaf signalgrass (Brachiaria platyphylla); conditions: scale 0 to 100
# Excerpt: as §1, §2
# [5] = system: common chickweed (Stellaria media); conditions: Postemergence, scale 0 to 100
# Excerpt: as §1, §2
# [6] = system: common mallow (Malva sylvestris); conditions: Postemergence, scale 0 to 100
# Excerpt: as §1, §2
# [7] = system: green foxtail (Setaria viridis); conditions: scale 0 to 100
# Excerpt: as §1, §2
# [8] = system: itchgrass (Rottboellia cochinchinensis); conditions: scale 0 to 100
# Excerpt: as §1, §2
# [9] = system: johnsongrass (Sorghum halepense); conditions: scale 0 to 100
# Excerpt: as §1, §2
# [10] = system: large crabgrass (Digitaria sanguinalis); conditions: scale 0 to 100
# Excerpt: as §1, §2
# [11] = system: naked crabgrass (Digitaria nuda); conditions: scale 0 to 100
# Excerpt: as §1, §2
# [12] = system: pitted morningglory (Ipomoea lacunosa); conditions: scale 0 to 100
# Excerpt: as §1, §2
# [13] = system: purple nutsedge (Cyperus rotundus); conditions: scale 0 to 100
# Excerpt: as §1, §2
# [14] = system: quackgrass (Elytrigia repens); conditions: scale 0 to 100
# Excerpt: as §1, §2
# [15] = system: surinam grass (Brachiaria decumbens); conditions: scale 0 to 100
# Excerpt: as §1, §2
smiles,measurement,setting,value
"CCc1cc(-c2ccc(C(F)(F)F)cc2)nn1-c1c(O)cnn(C)c1=O [Compound 11, 4-[5-ethyl-3-[4-(trifluoromethyl)phenyl]-1H-pyrazol-1-yl]-5-hydroxy-2-methyl-3(2H)-pyridazinone]","Plant response rating, Ryegrass, Italian","[1]; 4 g ai/ha, Postemergence",75
same,"Plant response rating, Ryegrass, Italian","[1]; 16 g ai/ha, Preemergence",80
same,"Plant response rating, Ryegrass, Italian","[1]; 31 g ai/ha, Preemergence",100
same,"Plant response rating, Ryegrass, Italian","[1]; Postemergence, 8 g ai/ha",90
same,"Plant response rating, Ryegrass, Italian","[1]; Postemergence, 16 g ai/ha",95
same,"Plant response rating, Ryegrass, Italian","[1]; Postemergence, 31 g ai/ha",95
same,"Plant response rating, Ryegrass, Italian","[1]; Preemergence, 4 g ai/ha",20
same,"Plant response rating, Bluegrass","[2]; 4 g ai/ha, Postemergence",0
same,"Plant response rating, Bluegrass","[2]; 8 g ai/ha, Preemergence",0
same,"Plant response rating, Bluegrass","[2]; 16 g ai/ha, Preemergence",0
same,"Plant response rating, Bluegrass","[2]; 31 g ai/ha, Preemergence",0
same,"Plant response rating, Bluegrass","[2]; Postemergence, 8 g ai/ha",0
same,"Plant response rating, Bluegrass","[2]; Postemergence, 16 g ai/ha",0
same,"Plant response rating, Bluegrass","[2]; Postemergence, 31 g ai/ha",0
same,"Plant response rating, Bluegrass","[2]; Preemergence, 4 g ai/ha",0
same,"Plant response rating, Bermudagrass","[3]; 4 g ai/ha, Postemergence",10
same,"Plant response rating, Bermudagrass","[3]; 8 g ai/ha, Preemergence",25
same,"Plant response rating, Bermudagrass","[3]; 16 g ai/ha, Preemergence",40
same,"Plant response rating, Bermudagrass","[3]; 31 g ai/ha, Preemergence",100
same,"Plant response rating, Bermudagrass","[3]; Postemergence, 8 g ai/ha",35
same,"Plant response rating, Bermudagrass","[3]; Postemergence, 16 g ai/ha",80
same,"Plant response rating, Bermudagrass","[3]; Postemergence, 31 g ai/ha",95
same,"Plant response rating, Bermudagrass","[3]; Preemergence, 4 g ai/ha",15
same,"Plant response rating, Signalgrass","[4]; 4 g ai/ha, Postemergence",90
same,"Plant response rating, Signalgrass","[4]; 16 g ai/ha, Preemergence",90
same,"Plant response rating, Signalgrass","[4]; 31 g ai/ha, Preemergence",100
same,"Plant response rating, Signalgrass","[4]; Postemergence, 8 g ai/ha",90
same,"Plant response rating, Signalgrass","[4]; Postemergence, 16 g ai/ha",90
same,"Plant response rating, Signalgrass","[4]; Postemergence, 31 g ai/ha",100
same,"Plant response rating, Signalgrass","[4]; Preemergence, 4 g ai/ha",0
same,"Plant response rating, Chickweed",[5]; 4 g ai/ha,0
same,"Plant response rating, Chickweed",[5]; 8 g ai/ha,0
same,"Plant response rating, Chickweed",[5]; 16 g ai/ha,0
same,"Plant response rating, Chickweed",[5]; 31 g ai/ha,0
same,"Plant response rating, Mallow",[6]; 4 g ai/ha,0
same,"Plant response rating, Mallow",[6]; 8 g ai/ha,0
same,"Plant response rating, Mallow",[6]; 16 g ai/ha,0
same,"Plant response rating, Mallow",[6]; 31 g ai/ha,0
same,"Plant response rating, Foxtail, Green","[7]; 4 g ai/ha, Postemergence",60
same,"Plant response rating, Foxtail, Green","[7]; 8 g ai/ha, Preemergence",50
same,"Plant response rating, Foxtail, Green","[7]; 16 g ai/ha, Preemergence",98
same,"Plant response rating, Foxtail, Green","[7]; 31 g ai/ha, Preemergence",98
same,"Plant response rating, Foxtail, Green","[7]; Postemergence, 8 g ai/ha",90
same,"Plant response rating, Foxtail, Green","[7]; Postemergence, 16 g ai/ha",98
same,"Plant response rating, Foxtail, Green","[7]; Postemergence, 31 g ai/ha",100
same,"Plant response rating, Foxtail, Green","[7]; Preemergence, 4 g ai/ha",0
same,"Plant response rating, Itchgrass","[8]; 4 g ai/ha, Postemergence",0
same,"Plant response rating, Itchgrass","[8]; 16 g ai/ha, Preemergence",65
same,"Plant response rating, Itchgrass","[8]; 31 g ai/ha, Preemergence",80
same,"Plant response rating, Itchgrass","[8]; Postemergence, 8 g ai/ha",75
same,"Plant response rating, Itchgrass","[8]; Postemergence, 16 g ai/ha",85
same,"Plant response rating, Itchgrass","[8]; Postemergence, 31 g ai/ha",98
same,"Plant response rating, Itchgrass","[8]; Preemergence, 4 g ai/ha",0
same,"Plant response rating, Johnsongrass","[9]; 4 g ai/ha, Postemergence",95
same,"Plant response rating, Johnsongrass","[9]; 16 g ai/ha, Preemergence",90
same,"Plant response rating, Johnsongrass","[9]; 31 g ai/ha, Preemergence",95
same,"Plant response rating, Johnsongrass","[9]; Postemergence, 8 g ai/ha",100
same,"Plant response rating, Johnsongrass","[9]; Postemergence, 16 g ai/ha",100
same,"Plant response rating, Johnsongrass","[9]; Postemergence, 31 g ai/ha",100
same,"Plant response rating, Johnsongrass","[9]; Preemergence, 4 g ai/ha",75
same,"Plant response rating, Crabgrass, Large","[10]; 4 g ai/ha, Postemergence",60
same,"Plant response rating, Crabgrass, Large","[10]; 8 g ai/ha, Preemergence",0
same,"Plant response rating, Crabgrass, Large","[10]; 16 g ai/ha, Preemergence",30
same,"Plant response rating, Crabgrass, Large","[10]; 31 g ai/ha, Preemergence",100
same,"Plant response rating, Crabgrass, Large","[10]; Postemergence, 8 g ai/ha",70
same,"Plant response rating, Crabgrass, Large","[10]; Postemergence, 16 g ai/ha",95
same,"Plant response rating, Crabgrass, Large","[10]; Postemergence, 31 g ai/ha",100
same,"Plant response rating, Crabgrass, Large","[10]; Preemergence, 4 g ai/ha",0
same,"Plant response rating, Crabgrass, Naked","[11]; 4 g ai/ha, Postemergence",25
same,"Plant response rating, Crabgrass, Naked","[11]; 8 g ai/ha, Preemergence",40
same,"Plant response rating, Crabgrass, Naked","[11]; 16 g ai/ha, Preemergence",95
same,"Plant response rating, Crabgrass, Naked","[11]; 31 g ai/ha, Preemergence",100
same,"Plant response rating, Crabgrass, Naked","[11]; Postemergence, 8 g ai/ha",90
same,"Plant response rating, Crabgrass, Naked","[11]; Postemergence, 16 g ai/ha",95
same,"Plant response rating, Crabgrass, Naked","[11]; Postemergence, 31 g ai/ha",98
same,"Plant response rating, Morningglory","[12]; 4 g ai/ha, Postemergence",0
same,"Plant response rating, Morningglory","[12]; 16 g ai/ha, Preemergence",0
same,"Plant response rating, Morningglory","[12]; 31 g ai/ha, Preemergence",0
same,"Plant response rating, Morningglory","[12]; Postemergence, 8 g ai/ha",0
same,"Plant response rating, Morningglory","[12]; Postemergence, 16 g ai/ha",0
same,"Plant response rating, Morningglory","[12]; Postemergence, 31 g ai/ha",0
same,"Plant response rating, Morningglory","[12]; Preemergence, 4 g ai/ha",0
same,"Plant response rating, Nutsedge, Purple","[13]; 4 g ai/ha, Postemergence",0
same,"Plant response rating, Nutsedge, Purple","[13]; 16 g ai/ha, Preemergence",0
same,"Plant response rating, Nutsedge, Purple","[13]; 31 g ai/ha, Preemergence",0
same,"Plant response rating, Nutsedge, Purple","[13]; Postemergence, 8 g ai/ha",0
same,"Plant response rating, Quackgrass","[14]; 4 g ai/ha, Postemergence",40
same,"Plant response rating, Quackgrass","[14]; 16 g ai/ha, Preemergence",60
same,"Plant response rating, Quackgrass","[14]; 31 g ai/ha, Preemergence",75
same,"Plant response rating, Quackgrass","[14]; Postemergence, 8 g ai/ha",65
same,"Plant response rating, Quackgrass","[14]; Postemergence, 16 g ai/ha",90
same,"Plant response rating, Quackgrass","[14]; Postemergence, 31 g ai/ha",95
same,"Plant response rating, Quackgrass","[14]; Preemergence, 4 g ai/ha",0
same,"Plant response rating, Surinam Grass","[15]; 4 g ai/ha, Postemergence",25
same,"Plant response rating, Surinam Grass","[15]; 16 g ai/ha, Preemergence",95
same,"Plant response rating, Surinam Grass","[15]; 31 g ai/ha, Preemergence",95
same,"Plant response rating, Surinam Grass","[15]; Postemergence, 8 g ai/ha",80
same,"Plant response rating, Surinam Grass","[15]; Postemergence, 16 g ai/ha",100
same,"Plant response rating, Surinam Grass","[15]; Postemergence, 31 g ai/ha",100
same,"Plant response rating, Surinam Grass","[15]; Preemergence, 4 g ai/ha",0
